Data reported in US20260028326A1, “COMPOUND BASED ON ISOINDOLINE-SUBSTITUTED GLUTARIMIDE BACKBONE AND USE THEREOF” (GLUETACS THERAPEUTICS (SHANGHAI) CO., LTD., priority 2022, published 2026).

Target: human Cereblon WT GST-tagged protein (Homo sapiens (Human), UniProt Q96SW2)
Assay: CRBN-binding affinity, HTRF (CEREBLON BINDING kit)
How it was run: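 GST-tagged human WT Cereblon incubated with compound, then Thalidomide-Re tracer and anti-GST Eu antibody added. Displacement read by HTRF, reported as CRBN binding inhibition rate against blank control wells without protein.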

Chain of human Cereblon WT GST-tagged protein (Q96SW2 whole entry): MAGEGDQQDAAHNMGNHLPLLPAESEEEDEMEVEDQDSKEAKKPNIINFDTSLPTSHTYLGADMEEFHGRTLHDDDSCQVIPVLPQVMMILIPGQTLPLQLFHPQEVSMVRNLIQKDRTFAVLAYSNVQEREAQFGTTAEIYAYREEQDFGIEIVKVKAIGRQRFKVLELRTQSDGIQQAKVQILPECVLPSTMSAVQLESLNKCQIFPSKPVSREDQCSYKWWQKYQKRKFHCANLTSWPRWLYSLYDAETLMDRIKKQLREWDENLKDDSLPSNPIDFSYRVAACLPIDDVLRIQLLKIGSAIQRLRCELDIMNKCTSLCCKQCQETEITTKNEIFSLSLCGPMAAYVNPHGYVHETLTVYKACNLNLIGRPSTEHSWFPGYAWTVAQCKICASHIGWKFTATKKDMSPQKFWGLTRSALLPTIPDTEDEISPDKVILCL

| SMILES | IC50 |
| --- | --- |
| CC1(C)CCC(CN2CCC3(CC2)CN(C(=O)c2ccc4c(c2)CN(C2CCC(=O)NC2=O)C4=O)C3)=C(c2ccc(F)cc2)C1 (stereo not drawn) [GT-05507, 3-(5-(7-((4′-fluoro-5,5-dimethyl-3,4,5,6-tetrahydro-[1,1′-biphenyl]-2-yl)methyl)-2,7-diazaspiro[3.5]nonane-2-carbonyl)-1-oxoisoindolin-2-yl)piperidine-2,6-dione] | 1240 nM |
| CC1(C)CCC(CN2CC3(C2)CN(C(=O)c2ccc4c(c2)CN(C2CCC(=O)NC2=O)C4=O)C3)=C(c2ccc(F)cc2)C1 (stereo not drawn) [GT-05508, 3-(5-(6-((4′-fluoro-5,5-dimethyl-3,4,5,6-tetrahydro-[1,1′-biphenyl]-2-yl)methyl)-2,6-diazaspiro[3.3]heptane-2-carbonyl)-1-oxoisoindolin-2-yl)piperidine-2,6-dione] | 720 nM |
| CC1(C)CCC(CN2C3CC2CN(Cc2ccc4c(c2)CN(C2CCC(=O)NC2=O)C4=O)C3)=C(c2ccc(F)cc2)C1 (stereo not drawn) [GT-05509, 3-(5-((6-((4′-fluoro-5,5-dimethyl-3,4,5,6-tetrahydro-[1,1′-biphenyl]-2-yl)methyl)-3,6-diazabicyclo[3.1.1]heptan-3-yl)methyl)-1-oxoisoindolin-2-yl)piperidine-2,6-dione] | 250 nM |
| CC1(C)CCC(CN2C3CCC2CN(Cc2ccc4c(c2)CN(C2CCC(=O)NC2=O)C4=O)C3)=C(c2ccc(F)cc2)C1 (stereo not drawn) [GT-05510, 3-(5-((8-((4′-fluoro-5,5-dimethyl-3,4,5,6-tetrahydro-[1,1′-biphenyl]-2-yl)methyl)-3,8-diazabicyclo[3.2.1]octan-3-yl)methyl)-1-oxoisoindolin-2-yl)piperidine-2,6-dione] | 1220 nM |
| CC1(C)CCC(CN2C3CCC2CN(C(=O)c2ccc4c(c2)CN(C2CCC(=O)NC2=O)C4=O)C3)=C(c2ccc(F)cc2)C1 (stereo not drawn) [GT-05511, 3-(5-(8-((4′-fluoro-5,5-dimethyl-3,4,5,6-tetrahydro-[1,1′-biphenyl]-2-yl)methyl)-3,8-diazabicyclo[3.2.1]octane-3-carbonyl)-1-oxoisoindolin-2-yl)piperidine-2,6-dione] | 1950 nM |
| CC1(C)CCC(C(=O)N2CC3CC(C2)N3Cc2ccc3c(c2)CN(C2CCC(=O)NC2=O)C3=O)=C(c2ccc(F)cc2)C1 (stereo not drawn) [GT-05514, 3-(5-((3-(4′-fluoro-5,5-dimethyl-3,4,5,6-tetrahydro-[1,1′-biphenyl]-2-carbonyl)-3,6-diazabicyclo[3.1.1]heptan-6-yl)methyl)-1-oxoisoindolin-2-yl)piperidine-2,6-dione] | 740 nM |
| CC1(C)CCC(C(=O)N2CC3CCC(C2)N3Cc2ccc3c(c2)CN(C2CCC(=O)NC2=O)C3=O)=C(c2ccc(F)cc2)C1 (stereo not drawn) [GT-05516, 3-(5-((3-(4′-fluoro-5,5-dimethyl-3,4,5,6-tetrahydro-[1,1′-biphenyl]-2-carbonyl)-3,8-diazabicyclo[3.2.1]octan-8-yl)methyl)-1-oxoisoindolin-2-yl)piperidine-2,6-dione] | 600 nM |
| CC1(C)CCC(C(=O)N2C3CCC2CN(Cc2ccc4c(c2)CN(C2CCC(=O)NC2=O)C4=O)C3)=C(c2ccc(F)cc2)C1 (stereo not drawn) [GT-05517, 3-(5-((8-(4′-fluoro-5,5-dimethyl-3,4,5,6-tetrahydro-[1,1′-biphenyl]-2-carbonyl)-3,8-diazabicyclo[3.2.1]octan-3-yl)methyl)-1-oxoisoindolin-2-yl)piperidine-2,6-dione] | 600 nM |
| CC1(C)CCC(C(=O)N2CCN(Cc3ccc4c(c3)CN(C3CCC(=O)NC3=O)C4=O)CC2)=C(c2ccc(F)cc2)C1 (stereo not drawn) [GT-05520, 3-(5-((4-(4′-fluoro-5,5-dimethyl-3,4,5,6-tetrahydro-[1,1′-biphenyl]-2-carbonyl)piperazin-1-yl)methyl)-1-oxoisoindolin-2-yl)piperidine-2,6-dione] | 350 nM |
| CC1(C)CCC(C(=O)N2CC3CC(C2)N3Cc2ccc3c(c2)CN(C2CCC(=O)NC2=O)C3=O)=C(c2ccc(Cl)cc2)C1 (stereo not drawn) [GT-05521, 3-(5-((3-(4′-chloro-5,5-dimethyl-3,4,5,6-tetrahydro-[1,1′-biphenyl]-2-carbonyl)-3,6-diazabicyclo[3.1.1]heptan-6-yl)methyl)-1-oxoisoindolin-2-yl)piperidine-2,6-dione] | 620 nM |
| CC1(C)CCC(C(=O)N2CC3CCC(C2)N3Cc2ccc3c(c2)CN(C2CCC(=O)NC2=O)C3=O)=C(c2ccc(Cl)cc2)C1 (stereo not drawn) [GT-05522, 3-(5-((3-(4′-chloro-5,5-dimethyl-3,4,5,6-tetrahydro-[1,1′-biphenyl]-2-carbonyl)-3,8-diazabicyclo[3.2.1]octan-8-yl)methyl)-1-oxoisoindolin-2-yl)piperidine-2,6-dione] | 480 nM |
| CC1(C)CCC(C(=O)N2C3CCC2CN(Cc2ccc4c(c2)CN(C2CCC(=O)NC2=O)C4=O)C3)=C(c2ccc(Cl)cc2)C1 (stereo not drawn) [GT-05523, 3-(5-((8-(4′-chloro-5,5-dimethyl-3,4,5,6-tetrahydro-[1,1′-biphenyl]-2-carbonyl)-3,8-diazabicyclo[3.2.1]octan-3-yl)methyl)-1-oxoisoindolin-2-yl)piperidine-2,6-dione] | 860 nM |
| CC1(C)CCC(C(=O)N2CC3CC2CN3Cc2ccc3c(c2)CN(C2CCC(=O)NC2=O)C3=O)=C(c2ccc(Cl)cc2)C1 (stereo not drawn) [GT-05524, 3-(5-((5-(4′-chloro-5,5-dimethyl-3,4,5,6-tetrahydro-[1,1′-biphenyl]-2-carbonyl)-2,5-diazabicyclo[2.2.1]heptan-2-yl)methyl)-1-oxoisoindolin-2-yl)piperidine-2,6-dione] | 490 nM |
| CC1(C)CCC(C(=O)N2CCN(Cc3ccc4c(c3F)CN(C3CCC(=O)NC3=O)C4=O)CC2)=C(c2ccc(Cl)cc2)C1 (stereo not drawn) [GT-05525, 3-(5-((4-(4′-chloro-5,5-dimethyl-3,4,5,6-tetrahydro-[1,1′-biphenyl]-2-carbonyl)piperazin-1-yl)methyl)-4-fluoro-1-oxoisoindolin-2-yl)piperidine-2,6-dione] | 710 nM |
| CC1(C)CCC(C(=O)N2CCN(Cc3cc(F)c4c(c3)CN(C3CCC(=O)NC3=O)C4=O)CC2)=C(c2ccc(Cl)cc2)C1 (stereo not drawn) [GT-05527, 3-(5-((4-(4′-chloro-5,5-dimethyl-3,4,5,6-tetrahydro-[1,1′-biphenyl]-2-carbonyl)piperazin-1-yl)methyl)-7-fluoro-1-oxoisoindolin-2-yl)piperidine-2,6-dione] | 990 nM |
| CC1(C)CCC(C(=O)N2CCN(Cc3cccc4c3CN(C3CCC(=O)NC3=O)C4=O)CC2)=C(c2ccc(Cl)cc2)C1 (stereo not drawn) [GT-05528, 3-(4-((4-(4′-chloro-5,5-dimethyl-3,4,5,6-tetrahydro-[1,1′-biphenyl]-2-carbonyl)piperazin-1-yl)methyl)-1-oxoisoindolin-2-yl)piperidine-2,6-dione] | 1930 nM |
| CC1(C)CCC(CN2C3CC2CN(Cc2cc4c(cc2F)C(=O)N(C2CCC(=O)NC2=O)C4)C3)=C(c2ccc(Cl)cc2)C1 (stereo not drawn) [GT-05530, 3-(5-((6-((4′-chloro-5,5-dimethyl-3,4,5,6-tetrahydro-[1,1′-biphenyl]-2-yl)methyl)-3,6-diazabicyclo[3.1.1]heptan-3-yl)methyl)-6-fluoro-1-oxoisoindolin-2-yl)piperidine-2,6-dione] | 1200 nM |
| CC1(C)CCC(CN2C3CC2CN(Cc2cc(F)c4c(c2)CN(C2CCC(=O)NC2=O)C4=O)C3)=C(c2ccc(Cl)cc2)C1 (stereo not drawn) [GT-05531, 3-(5-((6-((4′-chloro-5,5-dimethyl-3,4,5,6-tetrahydro-[1,1′-biphenyl]-2-yl)methyl)-3,6-diazabicyclo[3.1.1]heptan-3-yl)methyl)-7-fluoro-1-oxoisoindolin-2-yl)piperidine-2,6-dione] | 800 nM |
